From PubChem BioAssay (NCI)
Where “and” joins values, the source holds several entries; their conditions need not be identical. Equal entries are not always repeated.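 Each compound was tested at five concentrations against cells in 96-well plates for 48 hours. The concentration for 50% growth inhibition is given as GI50. At the TGI there is no net growth.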

How the values were obtained:
Test in all cases: NCI tumour cell line growth inhibition, 48 h
[1] = tested on: DLD-1 colon
[2] = tested on: DMS 114 small cell lung
[3] = tested on: M19-MEL melanoma
[4] = tested on: DMS 273 small cell lung
[5] = tested on: DU-145 prostate
[6] = tested on: PC-3 prostate
[7] = tested on: T-47D breast
[8] = tested on: BT-549 breast
[9] = tested on: NCI/ADR-RES ovarian
[10] = tested on: HS 578T breast

## CC(=O)N/C(=C\c1cccc([N+](=O)[O-])c1)c1nc2c3c(ccc2[nH]1)C(=O)c1ccccc1C3=O
[1]
  TGI: > 100 µM
[2]
  TGI: > 100 µM
[3]
  TGI: > 100 µM

## CC1(C)CCC[C@@]2(C)C1CC[C@H]1CC(O)C3(C)CCC12C3 (some centres undefined)
[1]
  TGI: 30.9 µM
[2]
  TGI: 31.2 µM
[3]
  TGI: 38.2 µM

## CC(=O)/C(=C\C1=CCCO1)C(=O)Nc1ccccc1C
[1]
  TGI: > 100 µM
[2]
  TGI: > 100 µM
[3]
  TGI: > 100 µM

## Cc1ccc(/C=C/C(=O)c2sc(-c3cccnc3)nc2C)cc1
[1]
  TGI: > 100 µM
[4]
  TGI: > 100 µM
[3]
  TGI: > 100 µM

## CC/C(=C(/CC)c1ccc(O)cc1)c1ccc([O-])cc1.CC/C(=C(/CC)c1ccc(O)cc1)c1ccc([O-])cc1.O=C([CH-]C(=O)c1ccccc1)c1ccccc1.O=C([CH-]C(=O)c1ccccc1)c1ccccc1.[Ti+4]
[1]
  GI50: 10.8 µM
  TGI: 28.9 µM
[4]
  GI50: 16.3 µM
  TGI: > 100 µM

## COc1cc2c(cc1OCCCCCCN1CCN(c3ncnc4ccccc34)CC1)N=CC1CCCN1C2=O (centres undefined)
[5]
  GI50: 0.12 µM
  TGI: 0.548 µM
[6]
  GI50: 0.0508 µM
  TGI: 0.742 µM
[7]
  GI50: 0.0237 µM
  TGI: 0.0792 µM
[8]
  GI50: 0.0422 µM
  TGI: 0.227 µM
[9]
  GI50: 0.899 µM
[10]
  GI50: 0.0887 µM
  TGI: 0.666 µM

## COc1cc2c(Oc3ccc4[nH]c(C)cc4c3F)ccnc2cc1OCC1(N)CC1
[5]
  GI50: 3.67 µM
  TGI: > 100 µM
[6]
  GI50: 1.36 µM
  TGI: 13.4 µM
[7]
  GI50: 3.64 µM
  TGI: 28.5 µM
[8]
  GI50: 1.3 µM
  TGI: 3.96 µM
[9]
  GI50: 2.31 µM
  TGI: > 100 µM
[10]
  GI50: 0.759 µM
  TGI: 3.29 µM

## CCCC(C)C[C@@H](C)CC(C)/C=C(\C)c1oc(=O)c(C)c(O)c1C (some centres undefined) (tested in a mixture with another compound)
[1]
  TGI: 27.8 µM
[2]
  TGI: 32.2 µM
[4]
  TGI: 32.4 µM

## O=C(Nc1ccc(F)cc1)C(=O)C(C1OC(=O)c2ccccc21)[N+](=O)[O-] (centres undefined)
[1]
  TGI: > 100 µM
[2]
  TGI: > 100 µM
[3]
  TGI: > 100 µM

## C=CCC(C(=O)O)c1ccccc1 (centres undefined)
[5]
  TGI: > 100 µM
[6]
  TGI: > 100 µM
[7]
  TGI: > 100 µM
[8]
  TGI: > 100 µM
[9]
  TGI: > 100 µM
[10]
  TGI: > 100 µM

## O=c1[nH]c2c3ccccc3ccc2c2cc3c(cc12)OCO3
[1]
  TGI: > 100 µM
[4]
  TGI: > 100 µM
[3]
  TGI: > 100 µM

## Cc1ccc(NC(=O)CC(=O)n2nc(-c3ccccc3)c(N=Nc3ccccc3Cl)c2-c2ccccc2)cc1
[2]
  GI50: > 100 µM
  TGI: > 100 µM
[4]
  TGI: > 100 µM
[3]
  GI50: > 100 µM
  TGI: > 100 µM

## COc1ccc(C2=C(c3ccc(OC)c(OC)c3)C(=O)OC2)cc1
[5]
  GI50: 0.185 µM
  TGI: > 100 µM
[6]
  GI50: < 0.0301 µM
  TGI: > 100 µM
[7]
  GI50: 1.66 µM
  TGI: > 91.8 µM
[8]
  GI50: 3.55 µM
  TGI: > 100 µM
[9]
  GI50: < 0.01 µM
  TGI: 1.12 µM
[10]
  GI50: 0.255 µM
  TGI: 0.792 µM

## O=C(Nc1ccc(F)cc1F)c1cc(Br)ccc1O
[5]
  GI50: 3.85 µM
  TGI: > 100 µM
[6]
  GI50: 2.45 µM
  TGI: 8.35 µM
[7]
  GI50: 1.81 µM
  TGI: 7.19 µM
[8]
  GI50: 1.99 µM
  TGI: 5.51 µM
[9]
  GI50: 2.86 µM
  TGI: 18.2 µM
[10]
  GI50: 2.24 µM
  TGI: 8.35 µM

## NC1CCCCC1N.O=S(=O)([O-])CCCN1CCOCC1.O=S(=O)([O-])CCCN1CCOCC1.[Pt+4]
[1]
  GI50: 28.3 µM
  TGI: > 100 µM
[4]
  GI50: 4.87 µM
  TGI: > 100 µM
[3]
  GI50: 4.52 µM
  TGI: > 100 µM

## CC1(C)CC(n2cnc(-c3ccc(F)cc3)c2-c2ccnc(N)n2)CC(C)(C)N1
[5]
  GI50: > 25 µM
  TGI: > 25 µM
[6]
  GI50: > 25 µM
  TGI: > 25 µM
[7]
  GI50: 24.3 µM
  TGI: > 25 µM
[8]
  GI50: > 25 µM
  TGI: > 25 µM
[9]
  GI50: > 25 µM
  TGI: > 25 µM
[10]
  GI50: > 25 µM
  TGI: > 25 µM

## Cc1cc(-c2nnc(N)nc2-c2ccc(F)cc2)cc(Cl)n1
[5]
  GI50: > 100 µM
  TGI: > 100 µM
[6]
  GI50: 76.9 µM
  TGI: > 100 µM
[7]
  GI50: 28.3 µM
  TGI: > 100 µM
[8]
  GI50: 58.1 µM
  TGI: > 100 µM
[9]
  GI50: 57.4 µM
  TGI: > 100 µM
[10]
  GI50: > 100 µM
  TGI: > 100 µM

## CN(C)CC/C(=N\Nc1ccccc1)c1ccccc1
[1]
  TGI: > 100 µM
[2]
  TGI: > 100 µM
[3]
  TGI: 77.9 µM

## CC[Si](CC)(CC)OC[C@]1([C@@H]2COC(C)(C)O2)CC=CC(=O)O1
[5]
  GI50: 82.9 µM
  TGI: > 100 µM
[6]
  GI50: 41.5 µM
  TGI: > 100 µM
[7]
  GI50: > 100 µM
  TGI: > 100 µM
[8]
  GI50: 20.2 µM
  TGI: 71.2 µM
[9]
  GI50: 32.1 µM
  TGI: > 100 µM
[10]
  GI50: 34.6 µM
  TGI: > 100 µM

## Cc1occc1C(=S)Nc1ccc(Cl)c(/C=N/OC(C)C)c1
[5]
  TGI: > 54.2 µM
[6]
  TGI: 47.3 µM
[7]
  TGI: > 41.6 µM
[8]
  TGI: 36.5 µM
[9]
  TGI: > 58 µM
[10]
  TGI: 67.9 µM

## O=C1c2ccccc2C2(O)NC(=S)N(c3ccccc3)C12O (centres undefined)
[1]
  TGI: > 100 µM
[2]
  TGI: > 100 µM
[3]
  TGI: > 100 µM

## CC(C)C1CCC/C=C/C=C/C=C/C=C/C(OC2OC(C)C(O)C(N)C2O)CC2OC(O)(CC(O)CC(O)C(O)CCC(=O)O1)CC(O)C2C(=O)O (centres undefined)
[2]
  TGI: > 52.5 µM
[3]
  TGI: > 52.5 µM

## C=C1C(=O)[C@@]23CC1C(O)[C@@H](OC(C)=O)[C@@H]2C1(C)C(OC(C)=O)C[C@@H](OC(C)=O)C(C)(C)[C@@H]1C[C@H]3OC(C)=O (some centres undefined)
[5]
  GI50: 16.9 µg/mL
  TGI: > 10 µM and 30.6 µg/mL
[6]
  GI50: 10.6 µg/mL
  TGI: > 10 µM and 22.4 µg/mL
[2]
  GI50: 2.08 µg/mL
  TGI: 4.6 µg/mL
[3]
  GI50: 2.23 µg/mL
  TGI: 4.85 µg/mL
[7]
  GI50: 2.14 µg/mL
  TGI: 4.55 µM and 4.57 µg/mL
[8]
  GI50: 1.87 µg/mL
  TGI: 3.04 µM and 3.31 µg/mL
[9]
  GI50: 16.9 µg/mL
  TGI: > 10 µM and 37.2 µg/mL
[10]
  GI50: 2 µg/mL
  TGI: > 10 µM and 5.83 µg/mL

## NC(=O)c1ccc2c(-c3ccnc(NCCCO)n3)c(-c3ccc(F)cc3)nn2c1
[5]
  GI50: > 22.8 µM
  TGI: > 25 µM
[6]
  GI50: > 25 µM
  TGI: > 25 µM
[7]
  GI50: > 25 µM
  TGI: > 25 µM
[8]
  GI50: > 25 µM
  TGI: > 25 µM
[9]
  GI50: > 25 µM
  TGI: > 25 µM
[10]
  GI50: > 25 µM
  TGI: > 25 µM

## COc1ccc2c(c1)OC1=C(C(=O)OC1)C2c1cc(OC)c(OC)c(OC)c1 (centres undefined)
[5]
  GI50: 0.529 µM
  TGI: > 42.4 µM
[6]
  GI50: 0.391 µM
  TGI: > 100 µM
[7]
  GI50: 0.489 µM
  TGI: > 100 µM
[8]
  GI50: 1.29 µM
  TGI: > 100 µM
[9]
  GI50: 0.325 µM
  TGI: > 100 µM
[10]
  GI50: 0.324 µM
  TGI: > 100 µM
